Tests used:
Spodoptera frugiperda = test: Lepidoptera artificial diet assay against Spodoptera frugiperda (pupation and mortality); format: in vivo; conditions: unformulated SB-P-70; 1×10^−4 M in diet; L1 larvae; FIG. 8, after 168 hours; compared to negative control vehicle and DDT
From the text: Frontier Lepidoptera artificial diet was made up by preparing agar at 1% and then mixing it with artificial diet powder. Peptide solution was aliquoted in 10 cells and diet poured straight onto it. The final concentration of the peptide was 1×10^−4 M, and each peptide was aliquoted in 10 cells. Once the diet solidified and cooled down, one L1 larvae was infested in each cell. The trays were sealed with heat and let larva were allowed to develop for 168 hrs. Finally, pupation and mortality were scored for. Lepidoptera artificial diet assays were performed with SB-P-70, and compared to a negative control vehicle and the insecticide dichlorodiphenyltrichloroethane (DDT).

Plutella xylostella = test: Leaf dip assay testing against Plutella xylostella (mortality); format: in vivo; conditions: unformulated SB-P-70; FIG. 6, after 96 hours; compared to negative control vehicle and Chlorantraniliprole
Experimental: The assay was carried out based on IRAC susceptibility test method 019 (https://irac-online.org/methods/aphids-adultnymphs/). Fill a small 4 cm wide 3 cm high dish with a 1% agar treatment solution of the active chemical or control (ensuring 1 cm gap between the agar and the lid) and leave to set. Dip a 2.5 cm leaf disc into 3 ml of treatment solution allowing the treatment to coat the leaf. Leave the disc to dry for 1 hour and place onto the set agar. Place insects (Plutella xylostella) onto each of the leaf discs. Each unit is sealed with a close-fitting, ventilated lid. Place the agar dishes in a small plastic tray lined with moist tissue paper and ensure the water trays in the bottom of the incubator are filled with clean water and place within the incubator. An assessment of mortality is made at 72, 96 and 120 hours. Leaf dip assays were performed with SB-P-70, and compared to a negative control vehicle and a current commercial insecticide Chlorantraniliprole. The activity of SB-P-70 is shown in FIG. 6; SB-P-70 has good activity whilst being eco-friendly and targeted to specific pests unlike broad spectrum chemical insecticides such as Chlorantraniliprole.

[Hy]-KVKFSAWG-[NH2] (H-KVKFSAWG-NH2) [SB-P-70]
activity against Spodoptera frugiperda (pupation and mortality, artificial diet assay) (Spodoptera frugiperda): much higher activity
activity against Plutella xylostella (mortality, leaf dip assay) (Plutella xylostella): good activity
